{"source": "patent US20220362237A1", "about": "“PS[…] TREATMENT OF PAIN” (Mind Medicine, Inc., priority 2021, published 2022)", "origin": "cited, not measured here", "key": {"5-HT transporter (SERT)": {"molecular_target": "5-HT transporter (SERT) (Homo sapiens, UniProt P31645)", "sequence (P31645 whole entry, species assumed)": "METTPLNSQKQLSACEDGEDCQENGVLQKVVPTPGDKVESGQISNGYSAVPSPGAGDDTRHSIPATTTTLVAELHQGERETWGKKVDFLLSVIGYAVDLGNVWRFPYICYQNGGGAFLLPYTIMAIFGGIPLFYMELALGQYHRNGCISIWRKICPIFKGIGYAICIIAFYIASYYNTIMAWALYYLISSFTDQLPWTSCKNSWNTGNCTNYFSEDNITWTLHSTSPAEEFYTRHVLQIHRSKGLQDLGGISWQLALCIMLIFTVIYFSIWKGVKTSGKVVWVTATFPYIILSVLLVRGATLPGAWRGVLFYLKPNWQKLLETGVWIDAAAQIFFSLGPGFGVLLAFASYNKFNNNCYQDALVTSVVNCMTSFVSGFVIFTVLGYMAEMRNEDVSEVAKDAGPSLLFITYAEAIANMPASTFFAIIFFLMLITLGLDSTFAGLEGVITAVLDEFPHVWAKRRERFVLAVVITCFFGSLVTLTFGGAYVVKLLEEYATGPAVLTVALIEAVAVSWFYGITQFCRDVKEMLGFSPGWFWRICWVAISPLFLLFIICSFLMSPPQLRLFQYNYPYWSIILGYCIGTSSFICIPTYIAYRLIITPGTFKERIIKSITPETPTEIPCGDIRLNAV"}, "5-HT2A receptor": {"molecular_target": "5-HT2A receptor (Homo sapiens, UniProt P28223)", "sequence (P28223 whole entry)": "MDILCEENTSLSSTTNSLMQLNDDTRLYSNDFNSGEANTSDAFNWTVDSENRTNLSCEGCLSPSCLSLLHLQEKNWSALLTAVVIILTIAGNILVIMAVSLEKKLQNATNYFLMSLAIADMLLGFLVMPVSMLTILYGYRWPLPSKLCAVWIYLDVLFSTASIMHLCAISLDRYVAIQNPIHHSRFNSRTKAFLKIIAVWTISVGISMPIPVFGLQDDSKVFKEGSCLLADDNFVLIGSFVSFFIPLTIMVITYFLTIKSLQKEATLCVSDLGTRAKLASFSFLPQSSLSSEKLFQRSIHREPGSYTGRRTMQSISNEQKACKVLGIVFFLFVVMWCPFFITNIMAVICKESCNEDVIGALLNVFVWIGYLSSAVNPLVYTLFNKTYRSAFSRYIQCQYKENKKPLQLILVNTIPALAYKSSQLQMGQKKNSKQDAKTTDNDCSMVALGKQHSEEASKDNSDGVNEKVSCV"}, "[1]": {"settings": "grave and terminally ill patients, acute treatment (one or two doses); pain returned after several days"}, "[2]": {"test_system": "serotonin 5-HT1 receptors"}, "[3]": {"settings": "20-microgram dose"}, "5HT2A receptors": {"test_system": "5HT2A receptors", "settings": "tumor necrosis factor-alpha-induced inflammation"}, "D2 receptors": {"molecular_target": "D2 receptors (Homo sapiens, UniProt P14416)", "sequence (P14416 whole entry)": "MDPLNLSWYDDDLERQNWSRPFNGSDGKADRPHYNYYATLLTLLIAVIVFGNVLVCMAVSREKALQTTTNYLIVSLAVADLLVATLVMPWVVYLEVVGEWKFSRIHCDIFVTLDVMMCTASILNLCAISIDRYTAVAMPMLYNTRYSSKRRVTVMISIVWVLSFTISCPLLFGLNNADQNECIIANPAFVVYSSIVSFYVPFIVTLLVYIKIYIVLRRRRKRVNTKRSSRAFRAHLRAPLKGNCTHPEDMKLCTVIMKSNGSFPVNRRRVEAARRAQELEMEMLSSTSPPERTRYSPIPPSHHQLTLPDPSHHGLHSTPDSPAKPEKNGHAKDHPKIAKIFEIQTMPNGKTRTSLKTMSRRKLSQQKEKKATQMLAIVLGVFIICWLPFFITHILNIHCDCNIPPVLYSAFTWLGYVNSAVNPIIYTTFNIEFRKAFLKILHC"}}}
{"smiles": "CCN(CC)C(=O)[C@@H]1C=C2c3cccc4[nH]cc(c34)C[C@H]2N(C)C1", "note": "[LSD, lysergic acid diethylamide]", "values": [{"measurement": "interaction with / inhibition of the 5-HT transporter (SERT)", "setting": "5-HT transporter (SERT)", "value": "does not interact"}, {"measurement": "stimulation of the 5-HT2A receptor", "setting": "5-HT2A receptor", "value": "potently stimulates"}, {"measurement": "stimulation of D1-3 receptors", "setting": "D1-3 receptors", "value": "stimulates"}, {"measurement": "stimulation of 5-HT2B/C receptors", "setting": "5-HT2B/C", "value": "stimulates"}, {"measurement": "pain relief compared with the narcotics meperidine and dihydromorphinone", "setting": "[1]", "value": "greater and longer lasting pain relief"}, {"measurement": "agonist potency at serotonin 5-HT1 receptors", "setting": "[2]", "value": "potent agonists"}, {"measurement": "subjective levels of experienced pain and unpleasantness", "setting": "[3]", "value": "decreased"}, {"measurement": "time that participants could tolerate cold water exposure", "setting": "[3]", "value": "significantly increased"}]}
{"smiles": "COc1cc(CC(C)N)c(OC)cc1I", "note": "(stereo not shown) [R-DOI, 2,5-dimethoxy-4-iodoamphetamine]", "values": [{"measurement": "anti-inflammatory effect", "setting": "5HT2A receptors", "value": "potent anti-inflammatory effect"}]}
{"smiles": "COc1cc(CCN)cc(OC)c1OC", "note": "[mescaline]", "values": [{"measurement": "affinity for D2 receptors", "setting": "D2 receptors", "value": "no affinity"}, {"measurement": "agonist potency at serotonin 5-HT1 receptors", "setting": "[2]", "value": "low potency"}]}
{"smiles": "CN(C)CCc1c[nH]c2cccc(O)c12", "note": "[psilocin]", "values": [{"measurement": "interaction with / inhibition of the 5-HT transporter (SERT)", "setting": "5-HT transporter (SERT)", "value": "inhibits"}, {"measurement": "agonist potency at serotonin 5-HT1 receptors", "setting": "[2]", "value": "potent agonists"}]}
